For 17 compounds, IC50 results are on record in patent US8148391B2 (Cephalon, Inc., priority 2006, dated 2012).

Bounds are passed on as bounds.

In experiment [1] the target is T1, baculovirus-expressed ALK (Homo sapiens, UniProt Q9UM73).
T1 construct: host or cells: baculovirus expression system
As to the kind of experiment: ALK Kinase Assay (ELISA-type, time-resolved fluorescence). The class given is biochemical. The note with it: 1 μM ATP (Km level); read-out: ALK Activity (ALK Kinase Inhibition, IC50). In outline: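 Wells were coated with phospholipase C-γ at 10 μg/mL in Tris-buffered saline. Adding 30 ng/ml enzyme started the reaction, which ran at 37° C for 15 minutes before Eu-N1 PT66 antibody detection. Percent inhibition versus log10 concentration gave IC50 by variable-slope fit.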
(In general: ELISA stands for enzyme-linked immunosorbent assay.)

Experiment [2] concerns the target T2, c-Met (cytoplasmic domain) (Homo sapiens, UniProt P08581).
T2 construct: 10 ng/mL c-Met (cytoplasmic domain, Invitrogen Corporation #PV3143); purchased Invitrogen Corporation PV3143
In words: c-Met Kinase Assay (same methods as for ALK, with modifications). Type of experiment: biochemical. Particulars: 1 μM ATP (Km level); read-out: cMet Activity (c-Met Kinase Inhibition, IC50). In outline: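 IC50 values were fitted by variable-slope sigmoidal regression of percent inhibition against log compound concentration. Phosphorylation was read with Eu-N1 PT66 antibody after a 15 min, 37 °C reaction. The reaction was initiated with 10 ng/mL c-Met cytoplasmic domain on wells coated with 10 μg/mL PLC-γ in TBS.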

T1 sequence (Q9UM73 19-1620): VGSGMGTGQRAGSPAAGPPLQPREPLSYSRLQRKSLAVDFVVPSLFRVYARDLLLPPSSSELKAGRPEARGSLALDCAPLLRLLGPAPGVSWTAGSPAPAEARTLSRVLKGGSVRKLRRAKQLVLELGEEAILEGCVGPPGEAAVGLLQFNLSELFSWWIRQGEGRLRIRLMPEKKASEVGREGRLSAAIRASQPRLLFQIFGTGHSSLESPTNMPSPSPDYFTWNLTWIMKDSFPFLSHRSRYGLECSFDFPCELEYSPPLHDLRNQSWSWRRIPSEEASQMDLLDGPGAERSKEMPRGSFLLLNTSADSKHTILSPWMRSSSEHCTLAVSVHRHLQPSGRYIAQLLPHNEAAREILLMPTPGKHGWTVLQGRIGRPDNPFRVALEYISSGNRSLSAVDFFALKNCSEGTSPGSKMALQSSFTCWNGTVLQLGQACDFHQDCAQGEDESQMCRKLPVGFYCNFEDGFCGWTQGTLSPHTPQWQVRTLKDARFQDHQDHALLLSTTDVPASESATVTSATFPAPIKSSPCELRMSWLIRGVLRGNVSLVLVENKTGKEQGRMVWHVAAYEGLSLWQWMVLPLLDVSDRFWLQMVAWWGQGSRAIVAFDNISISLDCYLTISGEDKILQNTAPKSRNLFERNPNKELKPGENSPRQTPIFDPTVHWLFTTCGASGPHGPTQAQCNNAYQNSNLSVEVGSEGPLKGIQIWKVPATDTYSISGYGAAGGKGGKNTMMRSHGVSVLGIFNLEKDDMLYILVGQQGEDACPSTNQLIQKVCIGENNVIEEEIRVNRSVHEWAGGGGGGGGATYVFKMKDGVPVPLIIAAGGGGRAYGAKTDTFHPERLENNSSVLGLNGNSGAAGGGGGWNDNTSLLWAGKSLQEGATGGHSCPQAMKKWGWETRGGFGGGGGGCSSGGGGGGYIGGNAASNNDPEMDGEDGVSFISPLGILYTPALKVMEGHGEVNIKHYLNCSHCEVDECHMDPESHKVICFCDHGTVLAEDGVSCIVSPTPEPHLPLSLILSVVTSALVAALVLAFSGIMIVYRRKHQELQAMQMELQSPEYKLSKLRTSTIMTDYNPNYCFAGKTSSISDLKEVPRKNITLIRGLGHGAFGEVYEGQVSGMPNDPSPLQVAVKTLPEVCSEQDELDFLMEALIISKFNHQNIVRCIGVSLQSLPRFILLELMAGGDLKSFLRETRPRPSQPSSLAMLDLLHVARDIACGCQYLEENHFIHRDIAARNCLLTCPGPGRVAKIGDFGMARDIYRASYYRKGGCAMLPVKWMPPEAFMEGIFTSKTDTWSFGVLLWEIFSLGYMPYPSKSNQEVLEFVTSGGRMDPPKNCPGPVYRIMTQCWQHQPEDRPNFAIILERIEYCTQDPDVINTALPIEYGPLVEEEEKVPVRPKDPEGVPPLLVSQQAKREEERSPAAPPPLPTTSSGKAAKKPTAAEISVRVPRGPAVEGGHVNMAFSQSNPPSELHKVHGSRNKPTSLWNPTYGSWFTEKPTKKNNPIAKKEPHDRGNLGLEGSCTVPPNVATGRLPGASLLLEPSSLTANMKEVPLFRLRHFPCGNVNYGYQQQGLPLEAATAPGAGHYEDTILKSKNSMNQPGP
T2 sequence (P08581 956-1390 limits assumed): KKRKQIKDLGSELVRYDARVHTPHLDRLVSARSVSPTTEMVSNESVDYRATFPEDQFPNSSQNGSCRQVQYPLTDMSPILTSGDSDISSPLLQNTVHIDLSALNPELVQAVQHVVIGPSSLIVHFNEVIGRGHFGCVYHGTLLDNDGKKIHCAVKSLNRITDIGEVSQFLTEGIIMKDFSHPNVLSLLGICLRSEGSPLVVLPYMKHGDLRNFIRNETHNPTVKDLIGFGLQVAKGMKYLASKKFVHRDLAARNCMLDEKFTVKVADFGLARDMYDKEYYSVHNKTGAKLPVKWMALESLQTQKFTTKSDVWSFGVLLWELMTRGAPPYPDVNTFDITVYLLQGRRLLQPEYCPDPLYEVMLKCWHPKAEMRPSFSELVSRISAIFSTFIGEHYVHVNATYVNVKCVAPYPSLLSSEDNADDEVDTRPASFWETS

What is called IC50 is the concentration that gives 50% inhibition. For the compound `CS(=O)(=O)Nc1ccccc1Nc1nc(Nc2ccc3c(c2)CNCCS3(=O)=O)ncc1Cl` [Example 523, N-{2-[5-Chloro-2(5,5dioxo-6,7,8,9-tetrahydro-5H-5lambda*6*-thia-8-aza-benzocyclohepten-2-ylamino)-pyrimidin-4-ylamino]-phenyl}-methanesulfonamide], the results for the 50% inhibitory concentration (IC50) in experiment [1] and in experiment [2] were 100 to 1000 nM and 1 to 10 µM, respectively.

For `CS(=O)(=O)N[C@@H]1CCCC[C@H]1Nc1nc(Nc2ccc3c(c2)CNCCO3)ncc1Cl` [Example 524, N-{(1R,2R)-2[5-Chloro-2-(2,3,4,5-tetrahydro-benzo[f]oxazepin-7-ylamino)-pyrimidin-4-ylamino]-cyclohexyl}-methanesulfonamide], the values for the concentration for half-maximal inhibition (IC50) in experiment [1] and in experiment [2] were less than 100 nM and 1 to 10 µM, respectively.

Take `CS(=O)(=O)N[C@@H]1CCCC[C@H]1Nc1nc(Nc2ccc3c(c2)CN(CCO)CCS3)ncc1Cl` [Example 525, N-((1R,2R)-2-{-5-Chloro-2-[8-(2-hydroxy-ethyl)-6,7,8,9-tetrahydro-5-thia-8-azabenzo-cyclohepten-2-ylamino]-pyrimidin-4-ylamino}cyclohexyl)-methanesulfonamide]: the concentration for half-maximal inhibition (IC50) lay within 100 to 1000 nM in experiment [1] and 1 to 10 µM in experiment [2].

Regarding `CC(=O)OCCN1CCSc2ccc(Nc3ncc(Cl)c(N[C@@H]4CCCC[C@H]4NS(C)(=O)=O)n3)cc2C1` [Example 526, Acetic acid 2-{2-[5-chloro-4-((1R,2R)-2-methanesulfonylamino-cyclohexylamino)-pyrimidin-2-ylamino]-6,7-dihydro-9H-5-thia-8-aza-benzocyclohepten-8-yl}-ethyl ester], the IC50 in experiment [1] was less than 100 nM; in experiment [2] it was 1 to 10 µM.

As to `CNC(=O)c1ccccc1Nc1nc(Nc2ccc3c(c2)CN(CCOC(C)=O)CCS3)ncc1Cl` [Example 527, Acetic acid 2-{2-[5-Chloro-4-(2-methylcarbamoyl-phenylamino)-pyrimidin-2-ylamino]-6,7-dihydro-9H-5-thia-8-aza-benzoylcyclohepten-8-yl}-ethyl ester], the concentration for half-maximal inhibition (IC50) is less than 100 nM in experiment [1] and less than 0.1 µM in experiment [2].

As for `CNC(=O)c1ccccc1Nc1nc(Nc2ccc3c(c2)CN(CCO)CCS3)ncc1Cl` [Example 528, 2-{5-Chloro-2-[8-(hydroxyl-ethyl)-6,7,8,9-tetrahydro-5-thia-8-aza-benzoylcyclohepten-2-ylamino]-pyrimidin-4-ylamino}-N-methyl-benzamide], the 50% inhibitory concentration (IC50) in experiment [1] was less than 100 nM; in experiment [2], less than 0.1 µM.

Regarding `CNC(=O)c1ccccc1Nc1nc(Nc2cccc3c2N(C)CCN(C)C3=O)ncc1Cl` [Example 541, 2-[5-Chloro-2-(1,4-dimethyl-5-oxo-2,3,4,5-tetrahydro-1H-benzo[e][1,4]diazepin-9-ylamino)-pyrimidin-4-ylamino]-N-methyl-benzamide], the half-maximal inhibitory concentration (IC50) in experiment [1] is 100 to 1000 nM; in experiment [2] it was more than 10 µM.

For `CN1CCN(C)c2c(Nc3ncc(Cl)c(N[C@@H]4CCCC[C@H]4NS(C)(=O)=O)n3)cccc2C1=O` [Example 542, N-{(1R,2R)-2-[5-Chloro-2-(1,4-dimethyl-5-oxo-2,3,4,5-tetrahydro-1H-benzo[e][1,4]diazepin-9-ylamino)-pyrimidin-4-ylamino]-cyclohexyl} methanesulfonamide], the figures for the 50% inhibitory concentration (IC50) in experiment [1] and in experiment [2] were less than 100 nM and more than 10 µM, respectively.

For `CNS(=O)(=O)c1ccccc1Nc1nc(Nc2cccc3c2N(C)CCN(C)C3=O)ncc1Cl` [Example 543, 2-[5-Chloro-2-(1,4-dimethyl-5-oxo-2,3,4,5-tetrahydro-1H-benzo[e][1,4]diazepin-9-ylamino)-pyrimidin-4-ylamino]-N-methyl-benzenesulfonamide], the IC50 was 1000 to 10000 nM in experiment [1] and more than 10 µM in experiment [2].

In the case of `CNC(=O)c1ccccc1Nc1nc(Nc2cccc3c2N(C)CCNC3=O)ncc1Cl` [Example 544, 2-[5-Chloro-2-(1-methyl-5-oxo-2,3,4,5-tetrahydro-1H-benzo[e][1,4]diazepin-9-ylamino)pyrimidin-4-ylamino]-N-methyl-benzamide], the half-inhibitory concentration (IC50) was less than 100 nM in experiment [1] and more than 10 µM in experiment [2].

Consider `C=CCN1CCNC(=O)c2cccc(Nc3ncc(Cl)c(Nc4ccccc4C(=O)NC)n3)c21` [Example 545, 2-[2-(1-Allyl-5-oxo-2,3,4,5-tetrahydro-1H-benzo[e][1,4]diazepin-9-ylamino)-5-chloro-pyrimidin-4-ylamino]-N-methyl-benzamide], for which the concentration for half-maximal inhibition (IC50) in experiment [1] was 1000 to 10000 nM; in experiment [2], more than 10 µM.

For the compound `CCN1C(=O)CCCc2c1ccc(Nc1ncc(Cl)c(NC3C4C=CC(C4)C3C(=O)N(C)C)n1)c2OC` (stereo not drawn) [Example 602, (2-exo-3-exo)-3-[5-Chloro-2-(1-ethyl-6-methoxy-2-oxo-2,3,4,5-tetrahydro-1H-benzo[b]azepin-7-ylamino)-pyrimidin-4-ylamino]-bicyclo[2.2.1]hept-5-ene-2-carboxylic acid dimethylamide], the half-inhibitory concentration (IC50) in experiment [1] was 100 to 1000 nM; in experiment [2], more than 10 µM.

Turning to `CCN1C(=O)CCCc2c1ccc(Nc1ncc(Cl)c(NC3C4C=CC(C4)C3C(=O)NC(C)C)n1)c2OC` (stereo not drawn) [Example 603, (2-exo-3-exo)-3-[5-Chloro-2-(1-ethyl-6-methoxy-2-oxo-2,3,4,5-tetrahydro-1H-benzo[b]azepin-7-ylamino)-pyrimidin-4-ylamino]-bicyclo[2.2.1]hept-5-ene-2-carboxylic acid isopropylamide], the IC50 in experiment [1] was 100 to 1000 nM; in experiment [2], more than 10 µM.

With `CNC(=O)C1C2C=CC(C2)C1Nc1nc(Nc2cc3c(cc2OC)CCN(CCOC)CC3)ncc1Cl` (stereo not drawn) [Example 604, (2-exo-3-exo)-3-{5-Chloro-2-[8-methoxy-3-(2-methoxy-ethyl)-2,3,4,5-tetrahydro-1H-benzo[d]azepin-7-ylamino]-pyrimidin-4-ylamino}-bicyclo[2.2.1]hept-5-ene-2-carboxylic acid methylamide], the half-inhibitory concentration (IC50) in experiment [1] is less than 100 nM; in experiment [2], more than 10 µM.

`COCCN1CCc2cc(Nc3ncc(Cl)c(NC4C5C=CC(C5)C4C(=O)NC(C)C)n3)c(OC)cc2CC1` (stereo not drawn) [Example 605, (2-exo-3-exo)-3-{5-Chloro-2-[8-methoxy-3-(2-methoxy-ethyl)-2,3,4,5-tetrahydro-1H-benzo[d]azepin-7-ylamino]-pyrimidin-4-ylamino}-bicyclo[2.2.1]hept-5-ene-2-carboxylic acid isopropylamide]: the values for the IC50 in experiment [1] and in experiment [2] were less than 100 nM and more than 10 µM, respectively.

Take `COCCN1CCc2cc(Nc3ncc(Cl)c(NC4C5C=CC(C5)C4C(=O)N(C)C)n3)c(OC)cc2CC1` (stereo not drawn) [Example 606, (2-exo-3-exo)-3-{5-Chloro-2-[8-methoxy-3-(2-methoxy-ethyl)-2,3,4,5-tetrahydro-1H-benzo[d]azepin-7-ylamino]-pyrimidin-4-ylamino}-bicyclo[2.2.1]hept-5-ene-2-carboxylic acid dimethylamide]: the IC50 in experiment [1] is less than 100 nM; in experiment [2], more than 10 µM.

`CCN1C(=O)CCCc2c1ccc(Nc1ncc(Cl)c(Nc3ccc(OC)cc3C(=O)NC)n1)c2OC` [Example 607, 2-[5-Chloro-2-(1-ethyl-6-methoxy-2-oxo-2,3,4,5-tetrahydro-1H-benzo[b]azepin-7-ylamino)-pyrimidin-4-ylamino]-5-methoxy-N-methyl-benzamide]: the IC50 is less than 100 nM in experiment [1] and 1 to 10 µM in experiment [2].
